Assay results from patent US9101671B2, “Methods and compositions related to clot binding compounds” (Sanford-Burnham Medical Research Institute, priority 2007, dated 2015).
Where no end group is shown, it is not given here.

What was measured:
human plasma clots = assay: Nanoparticle binding to human plasma clots in vitro
Procedure: (§1) Phage binding to clotted plasma proteins was determined as described (Pilch 2006). CREKA-SPIO and control SPIO were added to freshly formed plasma clots in the presence or absence of free CREKA peptide. After 10 min incubation, the clots were washed 4 times in PBS, transferred to a new tube and digested in 100 μl concentrated nitric acid. The digested material was diluted in 2 ml distilled water and the iron concentration was determined using inductively coupled plasma-optical emission spectroscopy (ICP-OES, PerkinElmer, Norwalk, Conn.).

tumor vessels = assay: Nanoparticle-induced blood clotting in vessels (fibrin(ogen)/CD31 staining, microscopy); format: in vivo, mice
Procedure: (§2) Mice bearing MDA-MB-435 xenografts were injected with Ni-liposomes and CREKA-SPIO nanoparticles as described in the legend to FIG. 2. The mice were perfused 6 hours after the nanoparticle injection and tissues were collected. (A) Upper panels: Co-localization of nanoparticle fluorescence with CD31 staining in blood vessels; Middle panels: Co-localization of nanoparticle fluorescence and anti-fibrin(ogen) staining in tumor blood vessels. Inset—an image showing CREKA-SPIO distributed along fibrils in a tumor blood vessel; Lower panels: Lack of co-localization of nanoparticle fluorescence with anti-CD41 staining for platelets. (B) Intravital confocal microscopy of tumors using DiI-stained red blood cells as a marker of blood flow. The arrow points to a vessel in which stationary erythrocytes indicate obstruction of blood flow. Blood flow in the vessel above is not obstructed. Six successive frames from a 1-min movie (Movie 2 in Supplementary Material) are shown. (C) CREKA-coated liposomes co-localize with fibrin in tumor vessels. The results are representative of 3 independent experiments. Magnification: A and C, 600×, B, 200×.
(§3) Mice bearing MDA-MB-435 human breast cancer xenografts were intravenously injected with PBS or a bolus of 800 U/kg of heparin followed 120 min later by Ni-liposomes (or PBS) and CREKA-SPIO (or control nanoparticles). The mice received additional heparin by intraperitoneal injections (a total of 1000 U/kg) or PBS throughout the experiment. (A) Tumors were removed 6 hours after the nanoparticle injection, and magnetic signal in the tumor after different treatments was determined with SQUID. Aminated dextran SPIO served as a particle control (control SPIO). […] The magnetization values were normalized to dry weight of the tissue. Results from 3 experiments are shown. (B) Quantification of heparin effect on clotting in blood vessels. Mice were pretreated with PBS (white bars) or heparin (black bars) as described above, followed by Ni liposomes/CREKA-SPIO nanoparticles. Three sections from two tumors representing each treatment were stained with anti-CD31 for blood vessels, and the percentage of vessels positive for fluorescence and fluorescent clots was determined. […] (C) A representative example of the appearance of CREKA-SPIO particles in tumor vessels of mice treated with heparin. (D) Near-infrared imaging of mice that received Ni-liposomes followed by Cy7-labeled CREKA-SPIO with or without heparin pretreatment. The images were acquired 8 hours after the injection of the CREKA-SPIO particles using an Odyssey 2 NIR scanner (Li-COR Biosciences, Lincoln, Nebr.). The images shown are composites of 2 colors, red (700 nm channel, body and chow autofluorescence) and green (800 nm channel, Cy7). Arrows point to the tumors, arrowheads to the liver. Note the strong decrease in signal from the tumor in the heparin-pretreated mouse. A representative experiment out of 3 is shown.
The low magnification (40×) was used to produce these images because only blood vessels in which clotting had concentrated the CREKA-SPIO fluorescence are visible at this magnification. […]
For intravenous injections, the animals were anesthetized with intraperitoneal Avertin, and liposomes (2 μmol DSPC) and/or nanoparticles (1-4 mg Fe/kg body weight) were injected into the tail vein. The animals were sacrificed 5-24 h post-injection by cardiac perfusion with PBS under anesthesia, and organs were dissected and analyzed for particle homing. […]

[1] = Nanoparticle clearance (plasma circulation half-life); format: in vivo, mice
platelets = assay: Role of platelets in nanoparticle homing; format: in vivo, mice; conditions: platelet depletion with anti-CD41 monoclonal antibody
Procedure: (A). Blood was drawn 5 min post-injection of 4 mg/kg of CREKA-SPIO into mice and a 50 μl aliquot was run through a magnetic column. Bound CREKA-SPIO particles were eluted form the column, concentrated on a slide, and stained with anti-CD41 antibody. Some of the particles appear to be associated with platelets. (B). A low-magnification image (40×) showing CREKA-SPIO homing and clot formation in a tumor from a platelet-depleted mouse. Platelet depletion was accomplished by treating mice with 0.1 mg of an anti-CD41 monoclonal antibody as described (Van der Heyde and Gramaglia (2005)). The mice subsequently received Ni-liposomes/CREKA-SPIO as described in the legend of FIG. 2.

[2] = tested on: MDA-MB-435 breast cancer xenografts; assay: Tumor homing and tissue distribution of intravenously injected particles (fluorescence microscopy); format: in vivo, mice
Procedure: CREKA-SPIO particles were intravenously injected (4 mg Fe/kg) into Balb/c nude mice bearing MDA-MB-435 human breast cancer xenograft tumors measuring 1-1.5 cm in diameter. The mice were sacrificed by perfusion 5-6 hours later and tissues were examined for CREKA-SPIO fluorescence (green). Nuclei were stained with DAPI (blue). (A) Distribution of CREKA-SPIO in tissues from MDA-MB-435 tumor mice that received 2 hours earlier an injection of PBS (A, upper panels) or Ni/DSPC/CHOL liposomes (Ni-liposomes) containing 0.2 μmol Ni in 200 μl of PBS (A, lower panels). (B) Plasma circulation half-life of CREKA-SPIO following different treatments. At least 4 time points were collected. Data were fitted to mono-exponential decay using Prizm software (GraphPad, San Diego, Calif.), and the half-life values were compared in unpaired t-test (***p<0.0001, n=10). (C) Accumulation of CREKA-SPIO nanoparticles in tumor vessels. Mice were injected and tissues collected as in panel A. Fluorescent intravascular CREKA-SPIO particles overlap with iron oxide viewed in transmitted light. Magnification: 600×. (D) Control organs of Ni-liposome/CREKA-SPIO-injected mice. Occasional spots of fluorescence are seen in the kidneys and lungs. […] Representative results from at least 3 independent experiments are shown. Magnification A and D, 200×; C, 600×.
For intravenous injections, the animals were anesthetized with intraperitoneal Avertin, and liposomes (2 μmol DSPC) and/or nanoparticles (1-4 mg Fe/kg body weight) were injected into the tail vein. The animals were sacrificed 5-24 h post-injection by cardiac perfusion with PBS under anesthesia, and organs were dissected and analyzed for particle homing. To suppress liver macrophages, mice were intravenously injected with liposomal clodronate suspension (100 μl per mouse), and the mice were used for experiments 24 hours later.

tumor blood vessels = assay: Intravital confocal microscopy of tumor blood flow; format: in vivo, mice; conditions: 4 mg/kg i.v.; Ni-liposome pre-injection; DiI-labeled erythrocytes as flow marker
Procedure: as §2
Tumor blood flow in MDA-MB 435 xenograft-bearing mice was observed by intravital microscopy. Mice were pre-injected with Ni-liposomes and 5×10^8 of DiI-labeled erythrocytes. […] Movies were recorded at 10 min intervals up to 120 min post-injection.

[3] = tested on: MDA-MB-435 human breast cancer xenografts; assay: Tumor magnetization by SQUID magnetometer; format: in vivo, mice
Procedure: as §3, with “The images were acquired 8 hours after the injection of the CREKA-SPIO particles using an Odyssey 2 NIR scanner (Li-COR Biosciences, Lincoln, Nebr.). The images shown are composites of 2 colors, red (700 nm channel, body and chow autofluorescence) and green (800 nm channel, Cy7). Arrows point to the tumors, arrowheads to the liver. Note the strong decrease in signal from the tumor in the heparin-pretreated mouse. A representative experiment out of 3 is shown.” left out

mouse plasma clots = assay: Nanoparticle binding to mouse plasma clots in vitro
Procedure: as §1

[4] = plain liposomes as decoy particles, injected before
[5] = after Ni-liposome pre-treatment
[6] = intravenous injection, no decoy pretreatment

CREKA-SPIO: Fluorescein-labeled CREKA coupled onto 50 nm superparamagnetic, amino dextran-coated iron oxide nanoparticles; at least 8,000 peptide molecules per particle (Fluorescein-CREKA; not fully specified; printed as fluorescein-CREKA; also: coupled to amino dextran-coated iron oxide nanoparticle)
binding to plasma clots (human plasma clots): bound to mouse and human plasma clots | tumor vessel lumens filled with fluorescent masses (occlusion) (tumor vessels; after liposome pretreatment): up to 20% | intravascular clotting, effect of heparin (tumor vessels; heparin pretreatment): essentially eliminated the intravascular clotting | number of vessels with nanoparticles bound to the vessel walls, effect of heparin (tumor vessels; heparin pretreatment): did not significantly reduce | colocalization of fibrin(ogen) staining and particle fluorescence in liver vessels (tumor vessels; liver): no colocalization | clotting in kidneys and lungs (non-RES tissues) (tumor vessels; low magnification images): no clotting in these tissues, with the exception of very rare clots in the kidneys | prolongation in particle half-life ([1]; RES macrophages in the liver depleted with liposomal clodronate): ~5 fold | blood half-life [1, 4]: prolonged the blood half-life | prolongation of half-life in the blood ([1]; pretreatment with intravenously injected Ni-liposomes): about 5 factor | effect of thrombocytopenia on homing to MDA-MB-435 tumors (platelets): no noticeable effect | tumor homing ([2]; Ni-liposome pretreatment 5 min or 48 h prior to injection): greatly increased the tumor homing | accumulation in the spleen [2, 5]: unchanged or even enhanced | particles in the liver [2, 5]: Fewer particles | accumulation in tumor [2, 6]: did not accumulate effectively | particles in reticuloendothelial system (RES) tissues [2, 6]: high concentration of particles | tumor homing [2, 4]: prolonged the blood half-life and tumor homing | particles in other organs ([2]; whether Ni-liposomes were used or not): minor amounts of CREKA-SPIO particles or no particles at all | clot formation and blood flow in tumor blood vessels (tumor blood vessels): time-dependent clot formation and obstruction of blood flow | greater accumulation in tumor, Ni-liposome-pretreated compared to PBS-pretreated mice ([3]; SQUID and fluorescence signal, tumors removed 6 hours after injection): about 6 fold | reduction of tumor accumulation of nanoparticles by heparin ([3]; heparin injected prior to CREKA-SPIO, SQUID): more than 50% | binding to plasma clots (mouse plasma clots): bound to mouse and human plasma clots
